Source: publication PMC5061434, “Bacterial Expression, Purification and In Vitro Phosphorylation of Full-Length Ribosomal S6 Kinase 2 (RSK2)” (PLoS ONE, 2016)

How the values were obtained:
[1] = target: T1, Ribosomal S6 kinase 2 (RSK2) (Mus musculus, UniProt P18654); test: ADP-Glo kinase assay with S6 peptide at […] ATP; also thermal shift (SYPRO Orange, ~[…]°C); type: biochemical
T1 construct: gene Rps6ka3; full-length mouse RSK2 (amino acids 1–740), expressed in E. coli, phosphorylated in vitro by ERK2 and PDK1
T1 sequence (P18654 whole entry, the tested form may be a part): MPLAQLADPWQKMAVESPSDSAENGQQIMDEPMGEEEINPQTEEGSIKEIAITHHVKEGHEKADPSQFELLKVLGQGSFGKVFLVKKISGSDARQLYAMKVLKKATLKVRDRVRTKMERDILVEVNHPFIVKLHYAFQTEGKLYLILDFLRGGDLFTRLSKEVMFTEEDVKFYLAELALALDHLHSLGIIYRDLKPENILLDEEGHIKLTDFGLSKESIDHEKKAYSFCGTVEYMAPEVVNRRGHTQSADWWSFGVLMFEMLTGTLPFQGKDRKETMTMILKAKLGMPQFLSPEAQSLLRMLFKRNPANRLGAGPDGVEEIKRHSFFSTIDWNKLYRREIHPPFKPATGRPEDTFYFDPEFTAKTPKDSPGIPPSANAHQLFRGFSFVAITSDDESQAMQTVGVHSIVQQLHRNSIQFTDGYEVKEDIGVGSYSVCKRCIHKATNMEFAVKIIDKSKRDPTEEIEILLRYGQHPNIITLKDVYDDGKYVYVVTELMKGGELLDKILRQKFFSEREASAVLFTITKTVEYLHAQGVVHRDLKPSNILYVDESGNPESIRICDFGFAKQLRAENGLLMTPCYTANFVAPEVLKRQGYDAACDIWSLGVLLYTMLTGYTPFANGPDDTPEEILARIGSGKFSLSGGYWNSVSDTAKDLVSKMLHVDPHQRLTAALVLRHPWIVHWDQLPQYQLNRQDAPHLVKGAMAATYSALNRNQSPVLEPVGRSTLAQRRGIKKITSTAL

[2] = target: full-length murine ribosomal S6 kinase 2 (RSK2) (mouse) (UniProt P18654); test: dynamic light scattering; RSK2 at ~0.7 mg/ml, 10°C, 50 mM Tris pH 8.0, 500 mM NaCl, 5 mM 2-mercaptoethanol; dimer of monomers

Row | IC50 [1] | stoichiometry N [2] | Molecule
1 | ~8 µM |  | CC(=O)O[C@@H]1[C@@H](OC(C)=O)[C@@H](O)[C@H](Oc2c(-c3ccc(O)cc3)oc3cc(O)cc(O)c3c2=O)O[C@H]1C [SL0101]
2 |  | 2 | full-length murine ribosomal S6 kinase 2 (RSK2) (from UniProt P18654 1-740) (enzyme)
